Assay results from US11472766B2, “Lipid nanoparticle composition” (Suzhou Abogen Biosciences Co., Ltd., priority 2020, dated 2022).

How the values were obtained:
[1] = Lipid nanoparticle size by dynamic light scattering (Malvern Zetasizer Nano ZS); type: physicochemical; conditions: LNP: cationic lipid/DSPC/cholesterol/PEG-lipid 50:10:38.5:1.5, hEPO mRNA
Method in brief: (§1)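 Lipids 50:10:38.5:1.5 (cationic:DSPC:chol:PEG) in EtOH + mRNA in citrate pH 4, 1:3 vol, microfluidic, 9–30 mL/min; total lipid:mRNA ~10:1–30:1 w/w. Dialysis to DPBS, 0.2 μm filter. DLS 173° backscatter; Ribogreen encapsulation.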

[2] = Encapsulation efficiency of lipid nanoparticles (Quant-it Ribogreen RNA quantification assay); type: physicochemical; conditions: LNP encapsulating hEPO mRNA
Method in brief: as §1

[3] = test system: human erythropoietin (hEPO) mRNA; test: Animal study: hEPO expression after tail vein injection of LNPs encapsulating hEPO mRNA (serum ELISA); type: in vivo; conditions: hEPO level, female ICR mice, 0.5 mg/kg, 6 hours post administration; for Expression at 6 h (μg/ml): class symbols, Table 3; for Expression at 6 h: Table 2
Method in brief: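 Female ICR mice (6-8 weeks) received LNPs carrying hEPO mRNA by tail vein injection at 0.5 mg/kg, with MC3 LNPs dosed the same way as positive control. Blood was drawn at set times (e.g., 6 h) and serum separated. hEPO was quantified by ELISA and reported as μg/ml.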

[4] = Apparent pKa of LNP formulations (TNS fluorescence assay); conditions: LNP cationic lipid/DSPC/cholesterol/DMG-PEG 50/10/38.5/1.5 mol %

| SMILES | polydispersity ([1]; Table 3) | size nm ([1]; Table 3) [nm] | Encapsulation Efficiency ([2]; Table 3) [%] | Expression at 6 h (μg/ml) [3] | Apparant Pka ([4]; Table 3) | polydispersity ([1]; Table 2) | size nm ([1]; Table 2) [nm] | Encapsulation Efficiency ([2]; Table 2) [%] | Expression at 6 h [3] [µg/mL] | Apparant Pka ([4]; Table 2) |
| --- | --- | --- | --- | --- | --- | --- | --- | --- | --- | --- |
| CCCCCCCCC(CCCCCC)COC(=O)CCCCN(CCCCC(=O)OCC(CCCCCC)CCCCCCCC)CCN(CCO)C1CCC1 (stereo not drawn) [Compound 36] | 0.065 | 70.36 | 98.3 | A (≥2) | 5.907 |  |  |  |  |  |
| CCCCCCC(CCCCCC)COC(=O)CCCCCN(CCCCCC(=O)OCC(CCCCCC)CCCCCC)CCN(CCO)C1CCC1 [Compound 48] | 0.065 | 72.52 | 91.80 | A (≥2) | 6.347 |  |  |  |  |  |
| CCCCCCCCC(CCCCCC)COC(=O)CCCCCN(CCCCCC(=O)OCC(CCCCCC)CCCCCCCC)CCN(CCCCO)C1CCC1 (stereo not drawn) [Compound 29] | 0.078 | 85.17 | 97.2 | A (≥2) | 6.477 |  |  |  |  |  |
| CCCCCCCCC(CCCCCCCC)COC(=O)CCCCCN(CCCCCC(=O)OCC(CCCCCCCC)CCCCCCCC)CCN(CCCC)C1CCC(O)CC1 (stereo not drawn) [Compound 67] | 0.05 | 64.75 | 79.3 | B (≥1 and <2) | 6.341 |  |  |  |  |  |
| CCCCCCCCC(CCCCCC)COC(=O)CCCCCN(CCCCCC(=O)OCC(CCCCCC)CCCCCCCC)C(=O)CCCN(CCO)C1CCC1 (stereo not drawn) [Compound 13] | 0.095 | 89.96 | 96.8 | C (≥0.1 and <1) | 7.206 |  |  |  |  |  |
| CCCCCCCCC(CCCCCC)COC(=O)CCCCCN(CCCCCC(=O)OCC(CCCCCC)CCCCCCCC)CCN(C)C1CC(O)C1 (stereo not drawn) [Compound 59] | 0.008 | 93.24 | 97.7 | B (≥1 and <2) | 6.682 |  |  |  |  |  |
| CCCCCCCCC(CCCCCCCC)COC(=O)CCCCCN(CCCCCC(=O)OCC(CCCCCCCC)CCCCCCCC)CCN(CCC)C1CCCC1O (stereo not drawn) [Compound 68] | 0.052 | 56.96 | 80.1 | C (≥0.1 and <1) | 6.279 |  |  |  |  |  |
| CCCCCCCCC(CCCCCC)COC(=O)CCCCCN(CCCCCC(=O)OCC(CCCCCC)CCCCCCCC)CCN(CCCO)C1CCCCCC1 (stereo not drawn) [Compound 10] |  |  |  |  |  | 0.113 | 69.2 | 96.0 | 0.79 | 5.83 |
| CCCCCCCCC(CCCCCC)COC(=O)CCCCCN(CCCCCC(=O)OCC(CCCCCC)CCCCCCCC)CCN(CCO)CCCC (stereo not drawn) [Compound C] |  |  |  |  |  | 0.061 | 65.0 | 96.9 | 2.95 | 6.46 |
| CCCCCCCCC(CCCCCC)CC(=O)COCCCCN(CCCCCOC(=O)CC(CCCCCC)CCCCCCCC)CCN(CCO)C1CCCCCC1 (stereo not drawn) [Compound 27] | 0.133 | 58.44 | 96.7 | C (≥0.1 and <1) | 6.153 |  |  |  |  |  |
| CCCCCCCCC(CCCCCC)COC(=O)CCCCCN(CCCCCC(=O)OCC(CCCCCC)CCCCCCCC)CCN(CCCO)C1CCCCC1 (stereo not drawn) [Compound 9] |  |  |  |  |  | 0.106 | 77.6 | 93.3 | 0.86 | 6.01 |
| CCCCCCCCC(CCCCCC)CC(=O)NCCCCCN(CCCCCOC(=O)CC(CCCCCC)CCCCCCCC)CCN(CCO)C1CC1 (stereo not drawn) [Compound 117] | 0.157 | 76.79 | 95.2 | A (≥2) | 6.72 |  |  |  |  |  |
| CCCCCCCCCCC(CCCCCC)COC(=O)CCCCN(CCCCC(=O)OCC(CCCCCC)CCCCCCCCCC)CCN(CCO)C1CCC1 (stereo not drawn) [Compound 42] | 0.065 | 65.63 | 96.4 | C (≥0.1 and <1) | 6.196 |  |  |  |  |  |
| CCCCCCCCC(CCCCCC)CNC(=O)CCCCCN(CCCCCC(=O)NCC(CCCCCC)CCCCCCCC)CCN(CCO)C1CC(O)C1 (stereo not drawn) [Compound 134] | 0.033 | 105.50 | 87.9 | A (≥2) | 6.442 |  |  |  |  |  |
| CCCCCCCCC(CCCCCC)COC(=O)CCCCCN(CCCCCC(=O)OCC(CCCCCC)CCCCCCCC)CCN(CCO)C1CCCCCC1 (stereo not drawn) [Compound 3] |  |  |  |  |  | 0.060 | 58.7 | 96.3 | 2.63 | 6.22 |
| CCCCCCCCC(CCCCCC)COC(=O)CCCCCCN(CCCCCCC(=O)OCC(CCCCCC)CCCCCCCC)CCN(CCO)C1CCC1 (stereo not drawn) [Compound 37] | 0.034 | 84.26 | 97.0 | A (≥2) | 6.205 |  |  |  |  |  |
| CCCCCCCCC(CCCCCCCC)CNC(=O)CCCCCN(CCCCCC(=O)NCC(CCCCCCCC)CCCCCCCC)CCN(CCO)C1CCCCC1 [Compound 137] | 0.029 | 60.84 | 95.29 | A (≥2) | 6.751 |  |  |  |  |  |
| CCCCCCCCC(CCCCCC)COC(=O)CCCCCN(CCCCCC(=O)OCC(CCCCCC)CCCCCCCC)CCN(C(C)C)C1CCC(O)CC1 (stereo not drawn) [Compound 57] | 0.063 | 93.52 | 96.1 | A (≥2) | 6.645 |  |  |  |  |  |
| CCCCCCCCC(CCCCCCCC)COC(=O)CCOCCN(CCOCCC(=O)OCC(CCCCCCCC)CCCCCCCC)CCN(CCO)C1CCCCC1 [Compound 104] | 0.022 | 70.93 | 89.96 | A (≥2) | 6.184 |  |  |  |  |  |
| CCCCC/C=C\CCCC(CCC/C=C\CCCCC)OC(=O)CCCCCN(CCCCCC(=O)OCCC/C=C/CCCCC)CCN(CCO)C1CCC1 [Compound 63] | 0.088 | 94.11 | 85.9 | B (≥1 and <2) | 6.406 |  |  |  |  |  |
| CCCCCCCCC(CCCCCC)COC(=O)NCCCCN(CCCCNC(=O)OCC(CCCCCC)CCCCCCCC)CCN(CCO)C1CCC1 (stereo not drawn) [Compound 155] | 0.035 | 64.39 | 98.4 | B (≥1 and <2) | 6.797 |  |  |  |  |  |
| CCCCCCCCC(CCCCCC)COC(=O)CCCCCC(CCCCCC(=O)OCC(CCCCCC)CCCCCCCC)CCCN(C)CCO (stereo not drawn) [Compound 18] | 0.15 | 71.85 | 100.16 | C (≥0.1 and <1) | 6.327 |  |  |  |  |  |
| CCCCCCCCC(CCCCCCCC)COC(=O)CCCCCN(CCCCCC(=O)OCC(CCCCCCCC)CCCCCCCC)CCN(CCO)C1CC(F)(F)C1 [Compound 79] | 0.154 | 52.19 | 89.2 | C (≥0.1 and <1) | 5.735 |  |  |  |  |  |
| CCCCCCCCC(CCCCCCCC)COC(=O)CCCCCN(CCCCCC(=O)OCC(CCCCCCCC)CCCCCCCC)CCN(CCO)C1CCCOC1 (stereo not drawn) [Compound 65] | 0.066 | 63.83 | 93.0 | A (≥2) | 6.544 |  |  |  |  |  |
